# Laboratory results as given in US20190174812A1, “SOLID ORAL NICOTINE FORMULATION” (Fertin Pharma A/S, priority 2017, published 2019).
# Details: nicotine concentration raised from 100 microgram/mL to 14,000 microgram/mL
smiles,measurement,value
CN1CCCC1c1cccnc1 (stereo not shown) [nicotine],Decrease of permeability of nicotine across the buccal mucosa (factor),two
